The compounds below were run on KRAS G12V dependent lung adenocarcinoma cell line, NCI-H441 (assay: Cellular pERK (Thr202/Tyr204) FRET/HTRF assay). Settings: Homo sapiens, NCI-H441, cellular pERK (Thr202/Tyr204) HTRF, NCI-H441 cells.
Assay type: cell-based
Text: “Ras” refers to a protein in the Ras superfamily of small GTPases, such as in the Ras subfamily. […] The Ras proteins play a critical role in the regulation of cell behaviors, including proliferation, differentiation, and survival. […] KRAS G12V, G12D, and G12S variants are common in human cancers and Ras inhibitors binding in or near the Switch II pocket may provide mutant binding selectivity. RAS mutations are known to be often associated with pancreatic, colorectal and non-small-cell lung carcinomas (Lone, A. M. et al. J. Am. Chem. Soc. 2011,133, 11665-74, which is entirely incorporated herein by reference; Dillon, M. B.; Bachovchin, D. A.; Brown, S. J.; Finn, M. G.; Rosen, H.; Cravatt, B. F.; Mowen, K. A. ACS Chem. Biol. 2012, 7, 1198-204, which is entirely incorporated herein by reference; Bachovchin, D. A.; Brown, S. J.; Rosen, H.; Cravatt, B. F. Nat. Biotechnol. 2009, 27, 387-94, Ostrem, J. M.; Peters, U.; Sos, M. L.; Wells, J. A.; Shokat, K. M. Nature 2013, 503, 548-551. Ryan M. B. and Corcoran R. B, Nat. Rev Clin Onco. 2018, 11, 709-720.). Ras proteins are key members in the Ras/Raf/Mitogen-activated protein kinase (MAPK) signaling pathway. This pathway regulates a wide variety of cellular processes, including proliferation, differentiation, apoptosis, and stress responses. One way to measure the impact of an inhibitor of Ras proteins is to measure downstream phosphorylation of proteins in the MAPK pathway. The MAPK pathway includes extracellular signal-regulated kinases named ERK1 and ERK2, which are serine-threonine kinases that regulate cellular signaling under both normal and oncogenic conditions. ERK expression and hyperactivation via phosphorylation plays a major role in cancer progression and are downstream of Ras proteins. The assay used for measuring the downstream impact of Ras inhibition is the use of a highly sensitive cell-based readout of ERK phosphorylation (pERK) specifically on Threonine (Thr) 202 and Tyrosine (Tyr) 204 in a KRAS G12V dependent lung adenocarcinoma cell line, NCI-H441 (ATCC Cat #HTB-174). The assay described herein is suitable for assessing inhibition of Ras and can be tailored for any of the predominant oncogenic mutations in any isoform of Ras (e.g., KRAS, HRAS, and NRAS) by changing the cell line.
pERK was measured using an advanced pERK assay designed for the robust and highly sensitive quantification of ERK phosphorylation on Thr202/Tyr204. This assay is intended for the simple, rapid, and direct detection of endogenous levels of ERK1/2 in cells, but only when ERK is phosphorylated at Thr202 and Tyr204 (Perkin Elmer Catalog #64AERPEH). pERK was detected in a FRET based sandwich assay format using 2 different specific antibodies, one labelled with Eu3+-Cryptate (donor) and the second with d2 (acceptor). When the dyes are in close proximity, the excitation of the donor with a light source (laser or flash lamp) triggers a Fluorescence Resonance Energy Transfer (FRET) towards the acceptor, which in turn fluoresces at a specific wavelength (665 nm). The specific signal modulates positively in proportion to p-ERK1/2 (Thr202/Tyr204). The simple mix-and-read protocol eliminates all wash steps for faster analysis and high-quality output. Briefly, cells were diluted to the desired concentration per well based on a growth curve showing ˜75% confluence within a 24-hour time period at no less than 95% viability. Cell suspension (24 μL) were added into each well of 384-well culture plate and maintained in 37° C. 5% CO2 incubator overnight prior to assay. All compounds were transferred to stock plates using TECAN (EVO200) liquid handler using DMSO as the solubilizing and dilution agent. Test compounds were transferred onto adherent cells using an Echo655 liquid handler. DMSO was employed as negative control. Cells were incubated with test compounds for 1 hr in a 37° C., 5% CO2 incubator following compound addition. […]

SMILES	IC50 [nM]
C#Cc1c(F)ccc2cccc(-c3ncc4c(N5CCOC[C@H]6[C@H](F)[C@H]65)nc(OC[C@@]56CCCN5CC(=C(F)F)C6)nc4c3F)c12 [Example 102, (1S,7S,8S)-2-(2-(((S)-2-(Difluoromethylene)tetrahydro-1H-pyrrolizin-7a(5H)-yl)methoxy)-7-(8-ethynyl-7-fluoronaphthalen-1-yl)-8-fluoropyrido[4,3-d]pyrimidin-4-yl)-8-fluoro-5-oxa-2-azabicyclo[5.1.0]octane]	< 50
[2H]C([2H])(F)Oc1c(F)ccc2cc(N)cc(-c3ncc4c(N5CCOC[C@H]6[C@H](F)[C@H]65)nc(OC[C@@]56CC7(CC7)CN5CCC65CC5)nc4c3F)c12 [Example 227, 4-(2-(((S)-dihydro-5′H-dispiro[cyclopropane-1,1′-pyrrolizine-6′,1″- cyclopropan]-7a′(7′H)-yl)methoxy)-8-fluoro-4-((1S,7S,8S)-8-fluoro-5-oxa-2-azabicyclo[5.1.0]octan-2-yl)pyrido[4,3-d]pyrimidin-7-yl)-6-fluoro-5-(fluoromethoxy-d2)naphthalen-2-amine]	< 50
[2H]C([2H])(Oc1nc(N2CCOC[C@H]3[C@H](F)[C@H]32)c2cnc(-c3cc(N)cc4ccc(Cl)c(C#C)c34)c(F)c2n1)[C@@]12CCCN1[C@H](C)[C@H](F)C2 [Example 337, 6-chloro-5-ethynyl-4-(8-fluoro-2-(((2R,3R,7aS)-2-fluoro-3-methyltetrahydro-1H-pyrrolizin-7a(5H)-yl)methoxy-d2)-4-((1S,7S,8S)-8-fluoro-5-oxa-2-azabicyclo[5.1.0]octan-2-yl)pyrido[4,3-d]pyrimidin-7-yl)naphthalen-2-amine]	< 50
[2H]C([2H])(Oc1nc(N2CCOC[C@H]3[C@H](F)[C@H]32)c2cc(C(F)(F)F)c(-c3ccc(F)c4sc(N)c(C#N)c34)c(F)c2n1)[C@@]12CCCN1C[C@H](F)C2 (atropisomer, axis not shown; (aS)) [Example 365, 2-amino-7-fluoro-4-((S)-8-fluoro-4-((1S,7S,8S)-8-fluoro-5-oxa-2-azabicyclo[5.1.0]octan-2-yl)-2-(((2R,7aS)-2-fluorotetrahydro-1H-pyrrolizin-7a(5H)-yl)methoxy-d2)-6-(trifluoromethyl)quinazolin-7-yl)benzo[b]thiophene-3-carbonitrile]	< 50
C#Cc1c(F)ccc2cc(N)cc(-c3ncc4c(N5CCOC[C@H]6[C@H](F)[C@H]65)nc(OC[C@@]56CCCN5C/C(=C\F)C6)nc4c3F)c12 [Example 155, 5-Ethynyl-6-fluoro-4-(8-fluoro-4-((1S,7S,8S)-8-fluoro-5-oxa-2-azabicyclo[5.1.0]octan-2-yl)-2-(((S,Z)-2-(fluoromethylene)tetrahydro-1H-pyrrolizin-7a(5H)-yl)methoxy)pyrido[4,3-d]pyrimidin-7-yl)naphthalen-2-amine]	< 50
C#Cc1c(F)ccc2cc(N)cc(-c3ncc4c(N5CCOC[C@H]6[C@H](F)[C@H]65)nc(OC[C@]56C[C@@H](F)CN5CCC6=C)nc4c3F)c12 [Example 364, 5-ethynyl-6-fluoro-4-(8-fluoro-2-(((6R,7aR)-6-fluoro-1-methylenetetrahydro-1H-pyrrolizin-7a(5H)-yl)methoxy)-4-((1S,7S,8S)-8-fluoro-5-oxa-2-azabicyclo[5.1.0]octan-2-yl)pyrido[4,3-d]pyrimidin-7-yl)naphthalen-2-amine]	< 50
[2H]C([2H])(Oc1nc(N2CCOC[C@H]3[C@H](F)[C@H]32)c2cnc(-c3nc(N)cc4ccc(F)c(C#C)c34)c(F)c2n1)[C@@]12CCCN1C[C@H](F)C2 [Example 154]	< 50
[2H]C([2H])(Oc1nc(N2CCOC[C@H]3[C@H](F)[C@H]32)c2cnc(-c3cccc4ccc(C(F)(F)F)c(C#C)c34)c(F)c2n1)[C@@]12CCCN1C[C@H](F)C2 [Example 332, (1S,7S,8S)-2-(7-(8-ethynyl-7-(trifluoromethyl)naphthalen-1-yl)-8-fluoro-2-(((2R,7aS)-2-fluorotetrahydro-1H-pyrrolizin-7a(5H)-yl)methoxy-d2)pyrido[4,3-d]pyrimidin-4-yl)-8-fluoro-5-oxa-2-azabicyclo[5.1.0]octane]	50 to 500
C#Cc1c(F)ccc2cc(N)cc(-c3ncc4c(N5CCOC[C@H]6[C@H](F)[C@H]65)nc(OC[C@@]56CCCN5C[C@H](F)C6)nc4c3F)c12 [Example 212, 5-Ethynyl-6-fluoro-4-(8-fluoro-4-((1S,7S,8S)-8-fluoro-5-oxa-2-azabicyclo[5.1.0]octan-2-yl)-2-(((2R,7aS)-2-fluorotetrahydro-1H-pyrrolizin-7a(5H)-yl)methoxy)pyrido[4,3-d]pyrimidin-7-yl)naphthalen-2-amine]	< 50
C#Cc1c(F)ccc2cc(O)cc(-c3ncc4c(N5CCOC[C@H]6[C@H](F)[C@H]65)nc(OC[C@H]5CCCN5C)nc4c3F)c12 [Example 284, 5-ethynyl-6-fluoro-4-(8-fluoro-4-((1S,7S,8S)-8-fluoro-5-oxa-2-azabicyclo[5.1.0]octan-2-yl)-2-(((R)-1-methylpyrrolidin-2-yl)methoxy)pyrido[4,3-d]pyrimidin-7-yl)naphthalen-2-ol]	< 50

Same assay, conditions: Homo sapiens, NCI-H441, pERK HTRF, NCI-H441 cells (KRAS G12V)

SMILES	IC50 [nM]
[2H]C([2H])(Oc1nc(N2CCC[C@H]3[C@H](F)[C@H]32)c2cnc(-c3cc(N)cc4cc(F)c(F)c(C#C)c34)c(F)c2n1)[C@@]12CCCN1C[C@H](F)C2 [Example 54, 5-Ethynyl-6,7-difluoro-4-(8-fluoro-4-((1S,6R,7S)-7-fluoro-2-azabicyclo[4.1.0]heptan-2-yl)-2-(((2R,7aS)-2-fluorotetrahydro-1H-pyrrolizin-7a(5H)-yl)methoxy-d2)pyrido[4,3-d]pyrimidin-7-yl)naphthalen-2-amine]	< 50
[2H]C([2H])([2H])Oc1c(F)c(F)c(F)c2cc(N)cc(-c3ncc4c(N5CCOC[C@H]6[C@H](F)[C@H]65)nc(OC([2H])([2H])[C@@]56CCCN5C[C@H](F)C6)nc4c3F)c12 [Example 41, 6,7,8-Trifluoro-4-(8-fluoro-4-((1S,7S,8S)-8-fluoro-5-oxa-2-azabicyclo[5.1.0]octan-2-yl)-2-(((2R,7aS)-2-fluorotetrahydro-1H-pyrrolizin-7a(5H)-yl)methoxy-d2)pyrido[4,3-d]pyrimidin-7-yl)-5-(methoxy-d3)naphthalen-2-amine]	< 50
[2H]C([2H])(Oc1nc(N2CCCC[C@H]3[C@H](F)[C@H]32)c2cnc(-c3cc(N)cc4cc(F)c(F)c(OCF)c34)c(F)c2n1)[C@@]12CCCN1C[C@H](F)C2 [Example 66, 6,7-Difluoro-4-(8-fluoro-4-((1S,7R,8S)-8-fluoro-2-azabicyclo[5.1.0]octan-2-yl)-2-(((2R,7aS)-2-fluorotetrahydro-1H-pyrrolizin-7a(5H)-yl)methoxy-d2)pyrido[4,3-d]pyrimidin-7-yl)-5-(fluoromethoxy) naphthalen-2-amine]	< 50

Same assay, conditions: cellular pERK HTRF, NCI-H441 (KRAS G12V) cells

SMILES	IC50 [nM]
N#Cc1c(N)sc2c(F)ccc(-c3c(C(F)(F)F)cc4c(N5CCOC[C@H]6[C@H](F)[C@H]65)nc(OC[C@@]56CCCN5CC(=C(F)F)C6)nc4c3F)c12 (atropisomer, axis not shown) [Example 438, 2-amino-4-((R)-2-(((S)-2-(difluoromethylene)tetrahydro-1H-pyrrolizin-7a(5H)-yl)methoxy)-8-fluoro-4-((1S,7S,8S)-8-fluoro-5-oxa-2-azabicyclo[5.1.0]octan-2-yl)-6-(trifluoromethyl)quinazolin-7-yl)-7-fluorobenzo[b]thiophene-3-carbonitrile]	500 to 10000

— patent US20250282799A1, “SUBSTITUTED PYRIDO[4,3-d]PYRIMIDINES AS KRAS MODULATORS” (Alterome Therapeutics, Inc., priority 2023, published 2025)
